The values below come from DBAASP.

Among the test systems are Escherichia coli ML-35p; Escherichia coli BL21; Escherichia coli DC2; Escherichia coli K-12; Escherichia coli UB1005; Escherichia coli 37; Klebsiella pneumoniae; Pseudomonas aeruginosa; Shigella dysenteriae; Staphylococcus aureus 10.
Assay in all cases: ≥ marks a high value that may be exact or a test limit, other limits are often not marked, values filed in µg/mL are converted to µM
The test system of test [1] is Acinetobacter baumannii 7226/16.
For test [2], the system named is Escherichia coli ESBL 521/17.
Test [3] has as its system Klebsiella pneumoniae ESBL 344/17.
Test [4] relates to Pseudomonas aeruginosa 522/17.
The test system of test [5] is Staphylococcus aureus 1399/17.
In test [6] the test system is Staphylococcus aureus ATCC 33591.
Test [7] relates to Staphylococcus aureus SG511.
Test [8] relates to Campylobacter jejuni KCTC 5327.
Test [9] has as its system Listeria monocytogenes KCCM 40307.
Test [10] concerns Listeria monocytogenes KCCM 43155.
Test [11] deals with Listeria monocytogenes KCTC 3710.
The subject of test [12] is Salmonella enterica subsp. enterica serovar Typhimurium ATCC 14028.
In test [13] the test system is Salmonella typhimurium CCARM 8009.
Test [14] concerns Salmonella typhimurium CCARM 8013.
For test [15], the system named is Streptococcus suis KCTC 3557.
Test [16] relates to Bacillus subtilis ATCC 6633.
The test system of test [17] is Corynebacterium xerosis C875.
The test system of test [18] is Enterococcus faecalis ATCC 29212.
Test [19] concerns Escherichia coli ATCC 25922.
In test [20] the test system is Pseudomonas aeruginosa ATCC 27853.
Test [21] relates to Pseudomonas aeruginosa PA214.
Test [22] deals with Pseudomonas aeruginosa PA330.
Test [23] has as its system Pseudomonas aeruginosa PAO1.
For test [24], the system named is Staphylococcus aureus ATCC 25923.
The subject of test [25] is Staphylococcus epidermidis C621.
Test [26] deals with Candida albicans ATCC 2002.
Test [27] relates to Enterobacter cloacae ATCC 13047.
Test [28] relates to Klebsiella pneumoniae ATCC 700603.
The test system of test [29] is Pseudomonas aeruginosa CMCCB 1010.
Test [30] has as its system Bacillus subtilis ATCC 9372.
Test [31] deals with Escherichia coli ATCC 8739.
The test system of test [32] is Proteus vulgaris NCTC 4635.
Test [33] relates to Pseudomonas aeruginosa ATCC 9027.
Test [34] relates to Staphylococcus aureus ATCC 6538.

As usually defined, the MIC is the lowest concentration found to suppress growth. Read a high MIC as a less susceptible organism.

In brackets after ≈: the same amount, converted by molar mass.

On to `CC[C@H](C)[C@H](NC(=O)[C@H](CCCN=C(N)N)NC(=O)[C@@H](NC(=O)[C@@H]1CCCN1C(=O)[C@@H]1CCCN1C(=O)[C@H](CCCN=C(N)N)NC(=O)[C@H](CCCN=C(N)N)NC(=O)[C@H](Cc1ccccc1)NC(=O)[C@@H]1CCCN1C(=O)[C@H](CC(C)C)NC(=O)[C@H](CCCN=C(N)N)NC(=O)[C@H](Cc1ccccc1)NC(=O)[C@@H](N)CCCN=C(N)N)[C@@H](C)CC)C(=O)N[C@@H](Cc1cnc[nH]1)C(=O)N1CCC[C@H]1C(=O)N1CCC[C@H]1C(=O)N1CCC[C@H]1C(=O)N[C@@H](Cc1ccccc1)C(=O)N[C@@H](Cc1ccc(O)cc1)C(=O)N1CCC[C@H]1C(=O)N1CCC[C@H]1C(=O)N[C@@H](Cc1ccccc1)C(=O)N[C@@H](CCCN=C(N)N)C(=O)N[C@@H](CCCN=C(N)N)C(=O)N[C@@H](Cc1ccccc1)C(=O)N[C@@H](CC(C)C)C(=O)O` [RFRLPFRRPPIRIHPPPFYPPFRRFL], for which the MIC in test [1] is 5.66 µM (≈ 19.1 µg/mL); in test [2], 4 µM (≈ 13.5 µg/mL); against Escherichia coli ML-35p, 2 µM (≈ 6.75 µg/mL); in test [3] it was 5.66 µM (≈ 19.1 µg/mL); in test [4], at least 32 µM; in test [5] it was 11.3 µM (≈ 38.2 µg/mL). Besides, the MIC in [6] is at least 32 µM; in [7], 0.5 µM (≈ 1.69 µg/mL).

Consider `CC(C)C[C@H](NC(=O)[C@H](CO)NC(=O)[C@H](CC(C)C)NC(=O)[C@H](CC(C)C)NC(=O)[C@H](CO)NC(=O)CNC(=O)[C@H](Cc1ccccc1)NC(=O)[C@@H](N)Cc1ccccc1)C(=O)NCC(=O)N[C@@H](CO)C(=O)N[C@@H](CCCCN)C(=O)N[C@@H](CC(C)C)C(=O)N[C@@H](CC(C)C)C(=O)N1CCC[C@H]1C(=O)N[C@@H](CO)C(=O)N[C@H](C(=O)N[C@@H](Cc1ccccc1)C(=O)N[C@@H](CCCCN)C(=O)N[C@@H](CC(C)C)C(=O)N[C@@H](Cc1ccccc1)C(=O)N[C@@H](CCC(N)=O)C(=O)N[C@@H](CCCN=C(N)N)C(=O)N[C@@H](CCCCN)C(=O)N[C@@H](CCCCN)C(=O)N[C@@H](CCC(=O)O)C(N)=O)C(C)C` [FFGSLLSLGSKLLPSVFKLFQRKKE], for which the MIC in [8] is 2 µM (≈ 5.74 µg/mL); in test [9], 2 µM (≈ 5.74 µg/mL); in test [10], 2 µM (≈ 5.74 µg/mL); in test [11], 2 µM (≈ 5.74 µg/mL); in test [12], 4 µM (≈ 11.5 µg/mL); in test [13], 4 µM (≈ 11.5 µg/mL). Moreover, the values for the MIC in [14] and in test [15] were 4 µM (≈ 11.5 µg/mL) and 2 µM (≈ 5.74 µg/mL), respectively.

`C[C@H](NC(=O)[C@H](C)NC(=O)[C@H](Cc1ccccc1)NC(=O)[C@H](C)NC(=O)[C@H](C)NC(=O)[C@H](Cc1c[nH]c2ccccc12)NC(=O)[C@H](C)NC(=O)[C@H](C)NC(=O)[C@H](Cc1ccccc1)NC(=O)[C@H](C)NC(=O)[C@H](C)NC(=O)[C@H](CCCCN)NC(=O)[C@H](CCCCN)NC(=O)[C@H](CCCCN)NC(=O)[C@H](CCCCN)NC(=O)[C@H](CCCCN)NC(=O)[C@@H](N)CCCCN)C(N)=O` [KKKKKKAAFAAWAAFAA]: the MIC in test [16] is 8 µM (≈ 14.7 µg/mL); in test [17], 0.5 µM (≈ 0.918 µg/mL); in [18] it was above 32 µM; in test [19] it was 8 µM (≈ 14.7 µg/mL); against Escherichia coli BL21, 1.6 µM (≈ 2.94 µg/mL); against Escherichia coli DC2, 0.5 µM (≈ 0.918 µg/mL). Besides, the MIC turned out to be 1.6 µM (≈ 2.94 µg/mL) against Escherichia coli K-12; 1 µM (≈ 1.84 µg/mL) with Escherichia coli UB1005; 16 µM (≈ 29.4 µg/mL) in test [20]; 3.1 µM (≈ 5.69 µg/mL) in [21]; 17.7 µM (≈ 32.4 µg/mL) in test [22]; 12.5 µM (≈ 22.9 µg/mL) in test [23]. In addition, the MIC in test [24] was above 32 µM; in test [25], 4 µM (≈ 7.34 µg/mL).

`CC[C@H](C)[C@H](NC(=O)[C@H](CC(C)C)NC(=O)[C@H](CC(C)C)NC(=O)[C@H](CCCCN)NC(=O)[C@H](C)NC(=O)[C@H](CC(C)C)NC(=O)[C@H](CCCCN)NC(=O)[C@@H](NC(=O)[C@H](C)NC(=O)CNC(=O)[C@H](CCSC)NC(=O)[C@H](CO)NC(=O)[C@@H](N)CC(=O)O)C(C)C)C(=O)N[C@@H](CC(=O)O)C(=O)N[C@@H](CCCCN)C(=O)N[C@@H](CCSC)C(=O)N[C@@H](CCCCN)C(=O)N[C@H]1CSSC[C@@H](C(=O)O)NC(=O)[C@H](C)NC(=O)[C@H](CCCCN)NC(=O)[C@H]([C@@H](C)O)NC(=O)[C@H](C(C)C)NC(=O)[C@H](CCC(=O)O)NC1=O` [DSMGAVKLAKLLIDKMKCEVTKAC]: the MIC in [26] was at least 60 µM; in test [27], at least 40 µM; in test [18], 60 µM (≈ 156 µg/mL); with Escherichia coli 37 it was at least 60 µM; in [19], 10 µM (≈ 25.9 µg/mL); in test [28], 15 µM (≈ 38.9 µg/mL). For the same molecule, the MIC in the test with Klebsiella pneumoniae is 30 µM (≈ 77.8 µg/mL); in test [20], 23 µM (≈ 59.7 µg/mL); in [29], 17 µM (≈ 44.1 µg/mL); in the test on Pseudomonas aeruginosa it was 23 µM (≈ 59.7 µg/mL); in the test with Shigella dysenteriae, at least 40 µM; in the test on Staphylococcus aureus 10, at least 40 µM. The MIC in test [24] was 17 µM (≈ 44.1 µg/mL).

As for `CC[C@H](C)[C@H](NC(=O)[C@@H](NC(=O)[C@H](C)NC(=O)[C@H](Cc1ccccc1)NC(=O)[C@H](CC(C)C)NC(=O)CN)C(C)C)C(=O)N[C@@H](CCCCN)C(=O)N[C@@H](CCCCN)C(=O)N[C@H](C(=O)N[C@@H](C)C(=O)N[C@@H](CO)C(=O)N[C@H](C(=O)O)C(C)C)C(C)C` [GLFAVIKKVASV], the MIC in test [30] is at least 52 µM; in test [31] it was at least 104 µM; in test [32], at least 416 µM; in [33] it was 208 µM (≈ 256 µg/mL); in [34] it was 208 µM (≈ 256 µg/mL).
